Data: US9586951B2 (FUJIFILM Corporation, priority 2013, dated 2017)
pIC50: −log10 of the molar value.

Biological target: T1, ATM (Homo sapiens, UniProt Q13315)
T1 construct: detecting phosphorylation of Chk2 in a human non-small cell lung cancer cell line NCI-H460 (ATCC company); host or cells: NCI-H460 human non-small cell lung cancer cells
Assay: ATM inhibition test (phosphorylation of Chk2 generated by ionizing radiation, AlphaScreen SureFire)
Type: cell-based
Conditions: phosphorylated Chk2 in NCI-H460 cells, ionizing radiation 8Gy, 1 hour after test compound treatment; read-out: ATM inhibitory activity
How it was run: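 NCI-H460 cells treated with compound for 1 hour, then irradiated with 8Gy and incubated 1 hour at 37° C. Phospho-Chk2 measured by AlphaScreen SureFire. Inhibition ratio calculated relative to untreated irradiated and non-irradiated wells.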

T1 sequence (Q13315 whole entry): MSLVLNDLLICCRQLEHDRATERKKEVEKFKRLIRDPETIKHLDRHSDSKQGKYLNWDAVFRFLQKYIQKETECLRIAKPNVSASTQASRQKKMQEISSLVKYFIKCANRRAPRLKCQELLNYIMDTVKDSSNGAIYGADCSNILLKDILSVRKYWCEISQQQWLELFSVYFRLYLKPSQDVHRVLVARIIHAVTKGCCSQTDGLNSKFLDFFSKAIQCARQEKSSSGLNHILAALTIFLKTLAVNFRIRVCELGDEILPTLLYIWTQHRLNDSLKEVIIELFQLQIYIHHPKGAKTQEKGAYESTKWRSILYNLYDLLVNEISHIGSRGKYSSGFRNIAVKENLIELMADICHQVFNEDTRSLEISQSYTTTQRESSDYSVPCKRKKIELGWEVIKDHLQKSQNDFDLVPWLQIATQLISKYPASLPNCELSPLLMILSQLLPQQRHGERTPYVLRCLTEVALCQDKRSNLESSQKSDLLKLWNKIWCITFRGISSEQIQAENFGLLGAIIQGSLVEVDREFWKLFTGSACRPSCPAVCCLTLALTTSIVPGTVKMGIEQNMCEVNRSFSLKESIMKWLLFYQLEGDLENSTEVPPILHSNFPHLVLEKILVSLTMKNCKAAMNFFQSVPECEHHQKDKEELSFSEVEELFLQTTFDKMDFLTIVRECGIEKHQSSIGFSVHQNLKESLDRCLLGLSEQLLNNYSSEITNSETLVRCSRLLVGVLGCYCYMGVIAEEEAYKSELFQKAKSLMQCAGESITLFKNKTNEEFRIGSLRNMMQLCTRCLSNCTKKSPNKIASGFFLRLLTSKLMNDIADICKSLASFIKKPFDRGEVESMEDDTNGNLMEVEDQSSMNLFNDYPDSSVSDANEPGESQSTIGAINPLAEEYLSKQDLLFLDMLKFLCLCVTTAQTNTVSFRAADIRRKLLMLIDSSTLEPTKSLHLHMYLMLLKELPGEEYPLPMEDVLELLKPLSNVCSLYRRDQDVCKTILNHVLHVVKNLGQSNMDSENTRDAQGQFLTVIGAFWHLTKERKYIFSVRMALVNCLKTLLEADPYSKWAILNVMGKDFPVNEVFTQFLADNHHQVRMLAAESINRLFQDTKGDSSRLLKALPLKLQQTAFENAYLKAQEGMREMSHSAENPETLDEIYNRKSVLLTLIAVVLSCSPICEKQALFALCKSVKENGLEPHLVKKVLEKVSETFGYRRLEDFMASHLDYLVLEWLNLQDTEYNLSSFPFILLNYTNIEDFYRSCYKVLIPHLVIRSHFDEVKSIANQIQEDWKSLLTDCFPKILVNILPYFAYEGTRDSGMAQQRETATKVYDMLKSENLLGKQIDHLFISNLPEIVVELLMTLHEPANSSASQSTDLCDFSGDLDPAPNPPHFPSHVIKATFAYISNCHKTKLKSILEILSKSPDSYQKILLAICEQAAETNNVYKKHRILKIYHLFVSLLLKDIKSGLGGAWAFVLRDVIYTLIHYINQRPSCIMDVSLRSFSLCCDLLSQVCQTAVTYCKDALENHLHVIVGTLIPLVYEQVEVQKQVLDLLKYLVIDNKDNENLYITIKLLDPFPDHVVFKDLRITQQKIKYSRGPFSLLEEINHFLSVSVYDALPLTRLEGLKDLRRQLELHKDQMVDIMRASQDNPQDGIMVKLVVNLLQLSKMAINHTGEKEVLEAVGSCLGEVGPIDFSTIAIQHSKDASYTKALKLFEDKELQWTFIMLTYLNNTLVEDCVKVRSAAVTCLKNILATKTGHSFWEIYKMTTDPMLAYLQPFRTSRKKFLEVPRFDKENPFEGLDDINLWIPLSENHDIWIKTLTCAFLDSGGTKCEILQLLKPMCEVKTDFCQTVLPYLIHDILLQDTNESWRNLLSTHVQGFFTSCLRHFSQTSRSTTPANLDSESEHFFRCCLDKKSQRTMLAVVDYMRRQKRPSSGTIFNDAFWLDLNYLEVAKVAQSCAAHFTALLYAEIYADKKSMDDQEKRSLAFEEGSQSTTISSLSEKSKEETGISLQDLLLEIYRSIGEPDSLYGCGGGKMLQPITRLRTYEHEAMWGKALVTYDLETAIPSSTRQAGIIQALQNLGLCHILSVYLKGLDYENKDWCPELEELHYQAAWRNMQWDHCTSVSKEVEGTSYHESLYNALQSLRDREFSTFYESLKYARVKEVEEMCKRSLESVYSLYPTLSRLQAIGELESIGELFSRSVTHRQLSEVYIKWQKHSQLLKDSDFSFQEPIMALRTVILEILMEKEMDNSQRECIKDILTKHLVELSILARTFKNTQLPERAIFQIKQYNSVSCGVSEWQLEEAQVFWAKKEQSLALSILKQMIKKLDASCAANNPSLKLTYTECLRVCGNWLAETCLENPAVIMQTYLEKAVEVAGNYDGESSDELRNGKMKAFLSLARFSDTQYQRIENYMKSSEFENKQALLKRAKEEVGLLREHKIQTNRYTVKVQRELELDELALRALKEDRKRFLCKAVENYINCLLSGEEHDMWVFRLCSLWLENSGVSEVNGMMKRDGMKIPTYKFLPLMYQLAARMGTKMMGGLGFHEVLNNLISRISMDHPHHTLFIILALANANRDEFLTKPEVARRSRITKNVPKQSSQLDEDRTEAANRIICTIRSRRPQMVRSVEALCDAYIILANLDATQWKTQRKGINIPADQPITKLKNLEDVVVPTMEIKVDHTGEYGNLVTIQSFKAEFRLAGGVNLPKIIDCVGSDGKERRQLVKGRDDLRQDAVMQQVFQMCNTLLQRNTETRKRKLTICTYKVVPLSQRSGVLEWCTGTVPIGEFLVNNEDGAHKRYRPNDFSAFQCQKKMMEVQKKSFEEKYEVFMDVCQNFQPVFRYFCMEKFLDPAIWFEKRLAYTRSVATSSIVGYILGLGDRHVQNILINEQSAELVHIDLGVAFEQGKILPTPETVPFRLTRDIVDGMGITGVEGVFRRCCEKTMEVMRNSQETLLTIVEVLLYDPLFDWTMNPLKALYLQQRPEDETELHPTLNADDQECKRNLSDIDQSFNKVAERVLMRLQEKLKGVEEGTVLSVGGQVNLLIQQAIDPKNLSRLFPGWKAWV

| SMILES | pIC50 |
| --- | --- |
| Cc1ccc(C(CCN(C)CCN(C)C)Nc2ccc3c(c2)Sc2cccc(-c4cc(N5CCOCC5)cc(=O)[nH]4)c2S3)nc1 (single isomer, unassigned) [Example 10-5-1, 6-(7-((3-((2-(Dimethylamino)ethyl)(methyl)amino)-1-(5-methylpyridin-2-yl)propyl)amino)thianthren-1-yl)-4-morpholinopyridin-2(1H)-one] | > 7.00 |
| O=c1cc(N2CCOCC2)cc(-c2cccc3c2Oc2ccc(NCc4ccsc4)cc2C3)[nH]1 [Example 2-14-35, 4-Morpholino-6-(7-((thiophen-3-ylmethyl)amino)-9H-xanthen-4-yl) pyridin-2(1H)-one] | 6.30 to 7.00 |
| O=c1cc(N2CCOCC2)cc(-c2nccc3c2Oc2ccc(NCc4cncc(Cl)c4)cc2C3)[nH]1 [Example 2-41-9, 6-(7-(((5-Chloropyridin-3-yl)methyl)amino)-5H-chromeno [2,3-c]pyridin-1-yl)-4-morpholino pyridin-2(1H)-one] | 6.30 to 7.00 |
| Cc1ccnc(C(CF)Nc2ccc3c(c2)Cc2cccc(-c4cc(N5CCOCC5)cc(=O)[nH]4)c2O3)n1 (stereo not shown) [Example 2-14-81, 6-(7-((2-Fluoro-1-(4-methylpyrimidin-2-yl)ethyl)amino)-9H-xanthen-4-yl)-4-morpholino pyridin-2(1H)-one] | 6.30 to 7.00 |
| COc1nccc(C(C)Nc2ccc3c(c2)Sc2cccc(-c4cc(N5CCOCC5)cc(=O)[nH]4)c2S3)n1 (stereo not shown) [Example 1-12-88, 6-(7-((1-(2-Methoxypyrimidin-4-yl)ethyl)amino)thianthren-1-yl)-4-morpholino pyridin-2(1H)-one] | 6.30 to 7.00 |
| CC(Nc1ccc2c(c1)Sc1cccc(-c3cc(N4CCOCC4)cc(=O)[nH]3)c1S2)C1CC1 (stereo not shown) [Example 1-12-43, 6-(7-((1-Cyclopropylethyl)araino)thianthren-1-yl)-4-morpholino pyridin-2(1H)-onc] | 5.70 to 6.30 |

Second part, the compound after the results:

| pIC50 | SMILES |
| --- | --- |
| > 7.00 | Cn1cc(-c2cc(CNc3ccc4c(c3)Cc3cccc(-c5cc(N6CCOCC6)cc(=O)[nH]5)c3O4)ccn2)cn1 [Example 2-4, 6-(7-(((2-(1-methyl-1H-pyrazol-4-yl)pyridin-4-yl)methyl)amino)-9H-xanthen-4-yl)-4-morpholinopyridin-2(1H)-one] |
| 6.30 to 7.00 | O=c1cc(N2CCOCC2)cc(-c2cccc3c2Sc2ccc(NC4CCN(Cc5ccccn5)CC4)cc2S3)[nH]1 [Example 1-24-19, 4-Morpholino-6-(7-((1-(pyridin-2-ylmethyl)piperidin-4-yl)amino)thianthren-1-yl)pyridin-2 (1H)-one] |
| 6.30 to 7.00 | COCCNCc1cccc(C(C)Nc2ccc3c(c2)Sc2cccc(-c4cc(N5CCOCC5)cc(=O)[nH]4)c2S3)n1 (stereo not shown) [Example 1-20-9, 6-(7-((1-(6-(((2-Methoxyethyl)amino)methyl)pyridin-2-yl)ethyl)amino)thianthren-1-yl)-4-morpholino pyridin-2 (1H)-one] |
| 6.30 to 7.00 | COC[C@H](CN(C)C1CCCCC1)Nc1ccc2c(c1)Sc1cccc(-c3cc(N4CCOCC4)cc(=O)[nH]3)c1S2 [Example 1-46-12, (S)-6-(7-((1-(Cyclohexyl (methyl)amino)-3-methoxypropan-2-yl)amino)thianthren-1-yl)-4-morpholino pyridin-2 (1H)-one] |
| 6.30 to 7.00 | CC(Nc1ccc2c(c1)Cc1cccc(-c3cc(N4CCOCC4)cc(=O)[nH]3)c1O2)c1cc(Cl)ccn1 (single isomer, unassigned) [Example 2-14-89-1, 6-(7-((1-(4-chloropyridin-2-yl)ethyl)amino)-9H-xanthen-4-yl)-4-morpholinopyridin-2(1H)-one] |
| 6.30 to 7.00 | COc1cncc(C(C)Nc2ccc3c(c2)Cc2cccc(-c4cc(N5CCOCC5)cc(=O)[nH]4)c2O3)n1 (stereo not shown) [Example 2-14-57, 6-(7-((1-(6-Methoxypyrazin-2-yl)ethyl)amino)-9H-xanthen-4-yl)-4-morpholino pyridin-2(1H)-one] |
| > 7.00 | Cc1ccc(C(Nc2ccc3c(c2)Sc2cccc(-c4cc(N5CCOCC5)cc(=O)[nH]4)c2S3)[C@H]2CCCN2C)nc1 (single isomer, unassigned) [Example 1-56-5] |
